According to US20250195542A1, “METABOLIC DISEASE THERAPEUTIC AGENT OR PREVENTIVE AGENT” (Peking University, priority 2022, published 2025):
Residue numbers refer to the chain shown, from its start.

Legend:
[1] = biological target: T1, RDH10 protein (Homo sapiens, UniProt Q8IZV5); test: Surface plasmon resonance (SPR), Biacore T200; assay type: binding; details: RDH10 immobilized on CM5 chip; 25S-Antcin C 0.78-25 μM; FIG. 15B
T1 sequence (Q8IZV5 1-341): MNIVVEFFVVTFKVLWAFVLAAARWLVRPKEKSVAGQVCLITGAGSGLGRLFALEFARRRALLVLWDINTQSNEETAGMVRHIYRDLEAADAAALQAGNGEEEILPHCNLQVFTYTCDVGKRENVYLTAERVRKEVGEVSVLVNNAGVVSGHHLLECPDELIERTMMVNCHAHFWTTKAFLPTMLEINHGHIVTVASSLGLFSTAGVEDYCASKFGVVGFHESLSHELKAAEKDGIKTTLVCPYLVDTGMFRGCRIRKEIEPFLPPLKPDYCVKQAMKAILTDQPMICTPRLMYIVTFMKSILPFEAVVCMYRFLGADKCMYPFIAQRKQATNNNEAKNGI
Experimental: Using a Biacore T200 plasmon surface resonance instrument, RDH10 protein was immobilized on a CM5 sensor chip via an amine coupling reaction. The pH of the RDH10 protein was 4.5, and the final immobilization concentration was 50 μg/mL. The running buffer consisted of 50 mM Tris-Hcl buffer containing […] NaCl, 2 mM MgCl2, 0.05% Tween-20, and 5% DMSO. In the binding experiment, different concentrations of 25S-Antcin C (25, 12.5, 6.25, 3.12, 1.56, 0.78 μM) were dissolved in the running buffer. The flow rate was 30 μL/min, with a contact time of 60 seconds and a dissociation time of 60 seconds. Data were analyzed using Biacore software, and the kinetic analysis calculated the affinity constant (KD value).

[2] = biological target: T2, RDH10 (Mus musculus, UniProt Q8VCH7); test: Cellular thermal shift assay (CETSA / ITDRFCETSA); assay type: binding
T2 construct: Take approximately 50 mg of liver tissue from C57BL/6J mice and add 1 mL of RIPA lysis buffer; from tissue; host or cells: mouse liver (C57BL/6J) lysate
T2 sequence (Q8VCH7 1-341): T1 sequence (Q8IZV5 1-341) with N99K, H107P, K278R, I287V
Experimental: • 1. Mouse liver total protein (500 μg/mL) was incubated at room temperature for 2 hours with either 25S-Antcin C (100 μM) or an equal volume of DMSO. • 2. After incubation, the 25S-Antcin C-treated group and the DMSO control group were aliquoted into 13 PCR tubes, with 30 μL per tube, and placed on ice. • 3. In a PCR machine, a gradient heating program for CETSA was set up with 12 temperature points (37, 41, 45, 49, 53, 57, 61, 65, 69, 73, 77, 81° C.). The 13 samples from the 25S-Antcin C-treated group and the DMSO control group were heated at each temperature point for 3 minutes, then immediately taken out and incubated at room temperature for 3 minutes, followed by rapid cooling on ice. • 4. The samples were transferred to 1.5 mL EP tubes and centrifuged at 15,000 rpm for 40 minutes at 4° C. • 5. The supernatant was transferred to new EP tubes, mixed with 5×SDS-PAGE loading buffer, and boiled for 5 minutes to denature the proteins. Western Blot was then performed.

[3] = test system: NASH in MCD model mice; test: H&E liver histology in MCD mice, Example 12; assay type: in vivo, C57BL/6J mice; details: oral 4 weeks, 10 and 20 mg/kg, better than obeticholic acid 10 mg/kg, FIG. 17A
Experimental: (§1) Four-week-old male C57BL/6J mice were purchased from the Experimental Animal Center, Peking University Health Science Center. The mice were randomly divided into groups, with 10 mice per group. Methionine choline-deficient diet (MCD) was used to induce NASH, forming the MCD model mice. The model mice were treated with an oral administration of drugs for 4 weeks. After the final treatment, the mice were fasted overnight, and then sacrificed. Serum and liver tissue samples were stored at −80° C., which could be compared with untreated MCD mice (“MCD”) and normal mice (“Nor” or “Normal”). The dosing amounts for each group were as follows: low-dose 25S-Antcin C (“ACS-L”): 10 mg/kg; high-dose 25S-Antcin C (“ACS-H”): 20 mg/kg; obeticholic acid (“OCA”): 10 mg/kg.
After the final treatment, the mice were sacrificed, and the liver tissue samples were fixed overnight in 4% paraformaldehyde, embedded in paraffin, and sectioned. […]

[4] = test system: mouse primary liver cells; test: Oleic acid-palmitic acid induced lipid deposition with RDH10 siRNA knockdown, mouse primary liver cells (Oil Red O); assay type: cell-based; details: 20 μM
[5] = test system: NASH in MCD model mice; test: Serum ALT and AST in MCD mice, Example 12; assay type: in vivo, C57BL/6J mice; details: oral 4 weeks, 10 and 20 mg/kg, better than obeticholic acid 10 mg/kg, FIG. 17B
Experimental: as §1
After the final treatment and overnight fasting, mice were anesthetized, and blood was collected from the tail vein. Whole blood was allowed to stand for 2 hours, centrifuged at 6000 rpm for 10 minutes, and the supernatant was used to measure serum alanine aminotransferase (ALT) and aspartate aminotransferase (AST) levels using ALT assay kit and AST assay kit (Bote Biotech, Beijing).

[6] = test system: L02 human liver cells; test: Oleic acid-palmitic acid induced lipid deposition with RDH10 siRNA knockdown, L02 cells (Oil Red O); assay type: cell-based; details: 20 μM
[7] = biological target: T2, RDH10; test: Protein fishing (pull-down) with molecular probe and proteomics analysis; assay type: binding, C57BL/6J mice; details: 400 μM ACS against 40 μM ACS-biotin
Experimental: • 1. Preparation of Liver Protein: Take approximately 50 mg of liver tissue from C57BL/6J mice and add 1 mL of RIPA lysis buffer. Lyse the proteins on ice, then centrifuge at 12,000 rpm for 30 minutes at 4° C. Collect the supernatant, measure the protein concentration using BCA method, and dilute to 1 mg/mL with PBS. • 2. Sample Preparation: Prepare new 1.5 mL EP tubes and divide them into control group, drug group, and competitive inhibition group. Add 100 μL of PBS solution containing 40 μM Biotin to the control group, 100 μL of PBS solution containing 40 μM ACS-biotin (prepared in Example 1) to the drug group, and 100 μL of PBS solution containing 40 μM ACS-biotin and 400 μM ACS to the competitive inhibition group. Then, add 100 μL of liver protein lysate (1 mg/mL) to each tube and incubate on a shaking incubator at 4° C. for 2 hours. • 3. Washing Streptavidin Beads: Add 100 μL of streptavidin beads to new 1.5 mL EP tubes and centrifuge at 2,700 rpm for 1 minute. Discard the supernatant and wash the beads with 100 μL of PBS three times. • 4. Binding and Washing: Add the solutions from step 2 to the washed streptavidin beads. Incubate on a shaking incubator at 4° C. for 2 hours, then centrifuge at 2,700 rpm for 1 minute. Discard the supernatant and wash the beads with 100 μL of PBS three times. • 5. Protein Elution: Add 50 μL of PBS to the beads, mix well, and then add 5×SDS-PAGE sample buffer. Boil for 5 minutes and centrifuge at 13,000 rpm for 5 minutes. Store the supernatant at −20° C. for SDS-PAGE gel electrophoresis. • 6. Protein Detection: Stain with Coomassie Brilliant Blue and cut the gel for proteomics analysis.

[8] = cited from earlier work
[9] = oleic acid-palmitic acid, 24 hours, FIG. 16B

C=C(CC[C@@H](C)[C@H]1CC[C@H]2C3=C(C(=O)C[C@]12C)[C@@]1(C)CCC(=O)[C@@H](C)[C@@H]1C[C@@H]3O)[C@H](C)C(=O)O [25S-Antcin C]
Kd [1]: 8.31 µM | RDH10 protein that did not precipitate ([2]; 100 μM, among 53-69 °C): significant increase | stability of RDH10 protein at 61° C. (ITDRFCETSA) ([2]; constant 61 °C, 0.01-1000 μM, FIG. 15D): increased with higher concentrations of 25S-Antcin C, stabilizing after 100 μM | CETSA curve of RDH10 ([2]; mouse liver total protein, 100 μM, 37-81 °C, compared to DMSO group, FIG. 15C): shift in the CETSA curve | liver steatosis and ballooning [3]: significantly reduced | effect on reducing lipid deposition in the RDH10 siRNA group ([4]; RDH10 knockdown): almost completely lost | lipid droplets, Control siRNA group [4, 9]: significantly reduced in size | serum ALT levels [5]: significantly reduced | serum AST levels [5]: significantly reduced | effect on reducing lipid deposition in the RDH10 siRNA group ([6]; RDH10 knockdown): almost completely lost | lipid droplets, Control siRNA group [6, 9]: significantly reduced in size | competitive inhibition of probe binding to RDH10 protein [7]: reduces the binding of the molecular probe to the RDH10 protein

CC[C@H]1[C@@H](O)[C@@H]2[C@H](CC[C@]3(C)[C@@H]([C@H](C)CCC(=O)O)CC[C@@H]23)[C@@]2(C)CC[C@@H](O)C[C@@H]12 [obeticholic acid]
serious side effects in clinical trials [8]: severe pruritus
